These are literature values, as cited in paper PMC12299598 (Pharmaceuticals, 2025).

For data set [1], the system named is BTK. Particulars: lower than ibrutinib.
Data set [2] concerns patients treated with ibrutinib. On the set-up: method as in PMID 29419429.
Details of data set [3]: method as in PMID 38955074.
Data set [4] concerns patients exposed to ibrutinib.
The subject of data set [5] is CYP3A4. On the set-up: method as in PMID 1764870.

Read-outs that look alike come from different tables or passages of the source.

Regarding `Nc1ncnc2c1c(-c1ccc(Oc3ccccc3)cc1)nn2C1CCCN(C(=O)C(O)CO)C1` (stereo not shown) [dihydrodiol metabolite], the “BTK inhibitory activity relative to ibrutinib” value in data set [1] is given as 15 fold.

On to `C=CC(=O)N1CCC[C@@H](n2nc(-c3ccc(Oc4ccccc4)cc3)c3c(N)ncnc32)C1` [ibrutinib], for which, in data set [2] (front-line ibrutinib), the “Toxicity leading to discontinuation: arthralgia” value was 41.6%, the “Toxicity leading to discontinuation: atrial fibrillation” value is on record as 25% and the “Toxicity leading to discontinuation: rash” value is recorded as 16.7%. In data set [2] (relapsed/refractory population), the “Toxicity leading to discontinuation: atrial fibrillation” value is recorded as 12.3%, the “Toxicity leading to discontinuation: bleeding” value is recorded as 9%, the “Toxicity leading to discontinuation: diarrhea” value is 6.6% and the “Toxicity leading to discontinuation: infection” value was 10.7%. For the same compound, the “Toxicity leading to discontinuation: pneumonitis” value in data set [2] (relapsed/refractory population) is reported as 9.9%. In addition, in data set [3], the Permeability result was “high” and the Solubility result is reported as “low”. Besides, where the note is “fasting conditions”, the Absolute oral bioavailability is 3.9%. In addition, the “Time to peak concentration” value (oral administration) was 1 to 2 h. Besides, the Absolute oral bioavailability (with standard breakfast) is listed as 8.4%. The “Cardiovascular deaths linked to ibrutinib” value in data set [4] was 303. In data set [4] (CNS events and heart failure), the “Mortality rate of cardiovascular ADRs” value is recorded as 20%. Further, the “Mortality rate of cardiovascular ADRs” value in data set [4] (supraventricular and ventricular arrhythmias) is 8%. For the same compound, the Mortality rate in data set [4] (supraventricular arrhythmias with concurrent CNS events) is on record as 28.8%.

Regarding `COc1ccc2[nH]c([S+]([O-])Cc3ncc(C)c(OC)c3C)nc2c1` (stereo not shown) [omeprazole], the CYP3A4 inhibitor strength result in data set [5] is “weak”.
